Experiment [1] deals with PTENpc-/- prostate tumors. Put plainly: Pten pc-/- transgenic mouse model of prostate cancer. The format is in vivo. Conditions: for number of LSC cells: from 6 weeks of age. How it is done:
FIG. 4C. Six-week old Pten^pc−/− mice were injected (i.p.) with either mcr84 (10 mg/kg) or EHT1864 (10 mg/kg) twice weekly for three weeks. The GU tract was harvested and total weight was measured. The prostate glands were separated and combined weight of all the lobes was measured. The prostate glands were digested and LSC cells (Lin^−Sca^+CD49f^high) were isolated by FACS.
FIG. 4D. Six-week old Pten^pc−/− mice were injected (i.p.) with either mcr84 (10 mg/kg) or EHT1864 (10 mg/kg) twice weekly for three weeks. The GU tract was harvested and total weight was measured. The prostate glands were separated and combined weight of all the lobes was measured.
FIG. 4E. Hematoxylin and eosin (H&E) staining of prostate tumors from Pten^pc−/− mice described in FIG. 4C, and the percentage of prostate glands showing either PIN or well-differentiated adenocarcinoma (AdCa). Scale bar is 100 μm.
FIG. 4F. TUNEL staining of tumor sections of prostate tumors from Pten^pc−/− mice described in FIG. 4C to detect apoptosis. Scale bar is 100 μm.
FIG. 7C. Six-week old Pten^pc−/− mice were injected (i.p.) with either mcr84 (10 mg/kg) twice weekly for three weeks. The prostate glands were harvested and immunostained using a myc antibody.
To pursue this hypothesis further, PTEN^pc−/− transgenic mice were treated with the Rac1 inhibitor (EHT1864), mcr84 or both at the start of puberty (6 weeks). […] We also compared the impact of mono- and combined therapy on PTEN^pc−/− tumors by calculating the weights of the isolated GU tracts and prostate lobes. […] Moreover, a mass of cells in the lumen of the gland was evident in mice that received the combined treatment. […] These tumor groups were also stained with CD31. Six-week old Ptenpc−/− mice were injected (i.p.) with either mcr84 (10 mg/kg) or EHT1864 (10 mg/kg) twice weekly for three weeks. The prostate glands were harvested and angiogenesis was analyzed using CD31 staining.

The subject of experiment [2] is PC3 and C4-2 sensitive and resistant cells. Put plainly: Prostatosphere formation. In kind it is cell-based. Conditions: resistant cells (PC3-R); EHT1864 20 μM. How it is done: FIG. 2B. Resistant and sensitive populations were analyzed for prostatosphere formation in the presence of either a NRP inhibitory peptide (c-furSEMA) or control peptide (c-SEMA).
FIG. 3H. PC3-R cells were stimulated with VEGF in the presence or absence of a Rac1 inhibitor (EHT1864; 20 μM) and the effect on prostatosphere formation was measured.
FIG. 6I. Prostatosphere formation by VEGF^high cells in the presence or absence of EHT1864 was quantified.

The subject of experiment [3] is Lin-Sca+CD49fhigh cells (LSC cells). Put plainly: Freshly sorted LSC cells from PTENpc-/- mice: proliferation, prostatosphere formation, qPCR. The format is cell-based, mouse. The note with it: Rac1 inhibitor EHT1864 (FIG. 3I). How it is done:
FIG. 3I. Freshly sorted Lin^−Sca^+CD49f^high cells (LSC cells) from PTEN^pc−/− mice were used to measure the effect of EHT1864, mcr84 or sunitinib on cell proliferation and prostatosphere formation.
FIG. 3J. Freshly sorted LSC cells from PTEN^pc−/− mice were treated with EHT1864 (20 μM) and expression of genes associated with stem cells and VEGF signaling was quantified by qPCR.
(§1) Cell-based assays: The chemosensitivity of prostate cancer cells was determined using a standard 3-(4,5-dimethylthiazol-2-yl)-2,5-diphenyltetrazolium bromide (MTT) cytotoxicity assay. The assay was performed 72 hours after treatment. FACS was used to isolate cells based on their surface expression of CD44, CD24, and the α6 and β4 integrins. The detailed procedure for isolating LSC cells from PTEN^pc−/− mice using lineage markers (CD31, CD45, and Ter119), Sca-1, and CD49f is described, e.g., in Mulholland, D. J., Xin, L., Morim, A., Lawson, D., Witte, O., and Wu, H. 2009. Lin−Sca−1+CD49fhigh stem/progenitors are tumor-initiating cells in the Pten-null prostate cancer model. Cancer Res 69:8555-8562; Lawson, D. A., Xin, L., Lukacs, R. U., Cheng, D., and Witte, O. N. 2007. Isolation and functional characterization of murine prostate stem cells. Proc Natl Acad Sci USA 104:181-186.
On the technique in general: In qPCR the cycle at which signal appears reflects the starting amount.

Experiment [4] has as its system VEGFhigh and VEGFlow PC3 cells. The experiment in a line: Proliferation of VEGFhigh and VEGFlow cells. In kind it is cell-based. The note with it: bevacizumab 1 mg/ml, sunitinib 20 μM, 72 hours. How it is done:
FIG. 6E. VEGF^high and VEGF^low cells were incubated with bevacuzimab (1 mg/ml) or sunitinib (20 μM) for 72 hours and their proliferation was assayed.

For another experiment, the system named is PC3-R xenograft tumors. Put plainly: PC3-R xenografts in NSG mice. In kind it is in vivo, mouse. How it is done:
FIGS. 4A-4F. Rac1 inhibition improves sensitivity to VEGF/VEGFR-targeted therapy. FIG. 4A. Tumor volume of mice that were treated with either control IgG or bevacuzimab. PC3-R cells were transfected with Rac1 shRNAs and these cells were implanted in NSG mice. Once tumors reached approximately 100 mm^3 in volume, mice were treated with either control IgG or bevacuzimab (10 mg/kg, intraperitoneally, twice weekly). Tumor volume was measured every third day.
FIG. 4B. Terminal deoxynucleotidyl transferase dUTP nick end labeling (TUNEL) for control and treated PC3-R xenograft tumors that were harvested. Apoptosis was analyzed using TUNEL staining. Scale bar is 10 μm.

For experiment [5], the system named is PC3 and C4-2 sensitive and resistant cells. The experiment in a line: Colony formation and MTT viability of sensitive and resistant cell lines. The format is cell-based. How it is done:
FIG. 1F. PC3 and C4-2 resistant and sensitive cell lines were analyzed for colony formation in the presence or absence of 10 μM Pazopanib.
FIG. 2C. Resistant and sensitive populations were analyzed for sensitivity to bevacuzimab (1 mg/ml) in the presence of either a NRP inhibitory peptide (c-furSEMA) or control peptide (c-SEMA).
FIG. 8F. PC3 and C4-2 resistant and sensitive cell lines were cultured in the presence of pazopanib (10 μM) or DMSO for 72 hours and cell viability is analyzed using the MTT assay.
FIG. 9D. PC3 and C4-2 resistant cells (10^3 cells per 60 mm plate) were cultured in the presence of either c-SEMA or c-furSEMA (1 μM), control IgG or NRP2 inhibitory antibody (1 μg/ml), or their respective controls for 10 days and colonies were stained with crystal violet. Colonies with more than 50 cells were counted.
as §1
The resistant cell lines generated are referred to as PC3-R and C4-2R. As controls, we also exposed these cell lines to control IgG (hIgG) and DMSO and refer to these as sensitive cell lines (PC3-S and C4-2S) (FIGS. 1D-1E).

For experiment [6], the system named is human prostate tumor cells. The experiment in a line: Sensitivity to bevacizumab of subpopulations sorted from freshly harvested prostate tumors (cell survival). The format is cell-based. How it is done:
FIG. 1B. Four subpopulations isolated based on expression of CD44 and CD24 were analyzed for their sensitivity to bevacuzimab. The percentage of live cells in three different areas was determined and mean is plotted as cell survival.
FIG. 1C. Cells from two human freshly harvested prostate tumors were sorted using ITGA6 and ITGB4 antibodies. The four subpopulations isolated based on expression of ITGA6 and ITGB4 were analyzed for their ability to form prostatospheres and sensitivity to bevacuzimab. The percentage of live cells in three different areas was determined and mean is plotted as cell survival.
Isolation of human prostate tumor cells and laser capture microscopy (LCM): Human prostate tumor tissue was obtained from UMASS Cancer Center Tissue Bank in compliance with the Institutional Review Board of the University of Massachusetts Medical School. The discarded but freshly resected, prostate tumors were digested with collagenase at 37° C. and epithelial cells were isolated using an EpCaM antibody. Frozen sections were microdissected by laser capture microscopy (Arcturus PixCell 2) to obtain pure populations of tumor cells of defined Gleason grades. […] Quantitative real-time PCR was done using the Taqman assay kit (Applied Biosystems). […]

The subject of the next experiment is ERK. The experiment in a line: ERK activation by immunoblotting with phospho-specific antibody. The format is cell-based. The protocol: FIG. 2D. PC3-S cells were serum-deprived overnight and stimulated with VEGF (50 ng/ml) for 30 minutes in the presence or absence of bevacuzimab (5 mg/ml). The activation of ERK was analyzed by immunoblotting using a phospho-specific antibody.
FIG. 2F. Sensitive and resistant C4-2 cell lines were serum-deprived overnight and stimulated with VEGF (50 ng/ml) for 30 minutes in the presence of bevacuzimab (5 mg/ml). The activation of ERK and AKT was analyzed by immunoblotting using phospho-specific antibodies.
FIG. 2G. Sensitive and resistant PC3 cell lines were serum-deprived overnight and stimulated with VEGF (50 ng/ml) for 30 minutes in the presence of bevacuzimab (5 mg/ml). The activation of ERK and AKT was analyzed by immunoblotting using phospho-specific antibodies.
FIG. 6F. VEGF^high and VEGF^low cells were serum-deprived overnight and stimulated with VEGF (50 ng/ml) for 30 minutes in the presence or absence of bevacuzimab (5 mg/ml). The activation of ERK was analyzed by immunoblotting using a phospho-specific antibody.

In experiment [7] the test system is androgen-independent prostate cancer. Conditions: bevacizumab monotherapy; cited from earlier work.
For the next experiment, the target named is NRP1 (Homo sapiens, UniProt O14786). Put plainly: Ability to block VEGF-A binding to NRP. Conditions: FIG. 9H. An excerpt: FIG. 9H. Ability of VEGF antibodies to block VEGF-A binding to NRP.
Where [8] appears, read: 10 mg/kg i.p. twice weekly for three weeks.
Setting [9] is: Rac1-depleted (shRNA) PC3-R xenografts plus bevacizumab.

As to `O=c1cc(CN2CCOCC2)occ1OCCCCCSc1ccnc2cc(C(F)(F)F)ccc12` [EHT1864], in experiment [1] (setting [8]), the “angiogenesis (CD31 staining)” value was “No significant difference in staining” and the “number of LSC cells” value is listed as “reduced the number of LSC cells significantly”. In addition, the “number of LSC cells” value in experiment [1] (10 mg/kg i.p. twice weekly for three weeks, listed as RACi) was “significantly reduced”. The “pathological examination of prostate tumors (PIN or adenocarcinoma)” value in [1] (H&E staining) is “progressed to well-differentiated adenocarcinomas”. Further, the number of prostatospheres entry in [2] is “reduced the number of prostatospheres”. Besides, the “sensitivity of LSC cells to mcr84 and sunitinib” value in experiment [3] is “increased the sensitivity of LSC cells”.
Regarding bevacizumab, in [4], the “resistance of VEGFhigh cells compared to VEGFlow cells (proliferation)” value was “more resistant”. Also, in the experiment on PC3-R xenograft tumors (setting [9]), the “apoptosis in residual tumors (TUNEL)” value was “contained mostly apoptotic cells” and the tumor volume result is reported as “significantly better decrease in tumor volume”. The tumor growth result in the experiment with PC3-R xenograft tumors (control PC3-R xenografts, bevacizumab alone, 10 mg/kg i.p. twice weekly) is given as “no significant effect on tumor growth”. In addition, the “sensitivity of resistant cells after down-regulation of P-Rex1” value in experiment [5] (PC3-R cells with P-Rex1 shRNA, bevacizumab 1 mg/ml, sunitinib 20 μM) was “increased their sensitivity”. Further, the “sensitivity to bevacizumab after down-regulation of NRP2 or NRP1” value in experiment [5] (PC3-R cells, shRNA) was “increased sensitivity”. Moreover, the “ability of the resistant cell lines to form colonies or survive” value in experiment [5] (PC3-R, C4-2R, bevacizumab 1 mg/ml, sunitinib 20 μM, 10 days colonies, 72 hours MTT) is on record as “Neither bevacizumab nor sunitinib inhibited”. The “resistance to inhibition of viability and prostatosphere formation after expression of constitutively active MEK” value in experiment [5] (sensitive cells) is listed as “increased their resistance”. Besides, the “resistance to bevacizumab after ectopic expression of NRP2” value in experiment [5] (sensitive cells, in the presence of VEGF) is given as “induces resistance”. In [6] (CD44+CD24- (P1) subpopulation versus other subpopulations), the “resistance to bevacizumab treatment (cell survival)” value is reported as “the only subpopulation that exhibited resistance”. Also, the “resistance to bevacizumab treatment (cell survival)” value in experiment [6] (high CD49f population compared to low CD49f population) is on record as “exhibited resistance”. For the same molecule, the “basal ERK activation” value in the experiment with ERK (VEGFhigh cells) is given as “resistant”. The “VEGF-induced ERK activation” value in the experiment with ERK (VEGFlow cells) is listed as “inhibited”. Besides, in the experiment on ERK (resistant cells, bevacizumab 5 mg/ml), the ERK activation entry is “unable to inhibit ERK activation”. Besides, in experiment [7], the “patients exhibiting a decline in PSA” value is 27% and the “response based on RECIST criteria” value was “no response noted”. The “blocking of the binding of VEGF-A to NRP1” value with NRP1 is listed as “Neither mcr84 nor bevacizumab blocked”.
